Data taken from PubChem BioAssay (NCI).
Several values for one entry are separate records, joined by “and”; a condition that tells them apart may be missing. Identical values can stand only once.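 Grown in 96-well plates, cells were treated for 48 hours with each compound at five concentrations. Insufficient inhibition: endpoint recorded as highest concentration tested. GI50 is the concentration that inhibits growth by half. The concentration for full growth arrest is given as TGI.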

What was measured:
Assay in all cases: NCI-60 cell line screen, 48 h
LOX IMVI melanoma = tested on: LOX IMVI melanoma
K-562 leukemia = tested on: K-562 leukemia
HL-60(TB) leukemia = tested on: HL-60(TB) leukemia
SF-539 CNS = tested on: SF-539 CNS
OVCAR-5 ovarian = tested on: OVCAR-5 ovarian
EKVX NSCLC = tested on: EKVX NSCLC
HCC-2998 colon = tested on: HCC-2998 colon
KM12 colon = tested on: KM12 colon
U251 CNS = tested on: U251 CNS
DU-145 prostate = tested on: DU-145 prostate

Structure (SMILES)	GI50 (LOX IMVI melanoma)	TGI (LOX IMVI melanoma)	GI50 (K-562 leukemia)	TGI (K-562 leukemia)	GI50 (HL-60(TB) leukemia)	TGI (HL-60(TB) leukemia)	GI50 (SF-539 CNS)	TGI (SF-539 CNS)	GI50 (OVCAR-5 ovarian)	TGI (OVCAR-5 ovarian)	GI50 (EKVX NSCLC)	TGI (EKVX NSCLC)	GI50 (HCC-2998 colon)	TGI (HCC-2998 colon)	GI50 (KM12 colon)	TGI (KM12 colon)	GI50 (U251 CNS)	TGI (U251 CNS)	GI50 (DU-145 prostate)	TGI (DU-145 prostate)
O=c1oc2ccccc2c(Cl)c1Cl	1.76 µM	12.4 µM	2.63 µM	> 100 µM	4.09 µM	34.3 µM	4.07 µM	15.3 µM	14.7 µM	30.1 µM	11.2 µM	27.1 µM	9.86 µM	21.8 µM	3.61 µM	13.7 µM	2.85 µM	8.86 µM	3.02 µM	12.1 µM
CC(C)(C)[Si](C)(C)OC1[C@@H](O[Si](C)(C)C(C)(C)C)[C@@H](CNC(=O)NC(=O)NC(=O)CI)O[C@H]1n1cnc2c(NC(=O)Nc3ccccc3)ncnc21 (stereo partly specified)	0.0864 µM	0.155 µM	3.55 µM	8.5 µM	0.0845 µM	0.166 µM	0.441 µM	1.16 µM	2.71 µM	12.2 µM	0.236 µM	1.14 µM	8.22 µM	17.8 µM	0.68 µM	3.78 µM	0.443 µM	1.88 µM	8.67 µM	20 µM
CCOC(=O)c1[nH]c2cccc3c2c1CC(Br)C3=O (stereo unspecified)		31.8 µM				10.7 µM		30.4 µM		34.5 µM		32.2 µM		29.8 µM		30.5 µM		30.1 µM		30.4 µM
Cc1c2ncccc2c(C)c2c1[nH]c1ccc(O)cc12	2.39 µM	6.61 µM	5.04 µM	20.9 µM and 50.4 µM	3.84 µM and 4.76 µM	10.5 µM and 15 µM	4.85 µM	20.8 µM	46.6 µM	24.4 µM and 120 µM	1.01 µM	17.3 µM and 63 µM		17.9 µM and 12.3 µM	7.19 µM and 7.87 µM	19.9 µM and 23.1 µM	9.94 µM and 4.34 µM	13.9 µM and 21.6 µM	5.31 µM	17.9 µM
CN(C)CCCNC(=O)c1cc(NC(=O)c2cc(NC(=O)CCCN3c4ccccc4C=Cc4ccccc43)cn2C)cn1C			2.12 µM	4.97 µM	14.3 µM	41.4 µM	5.57 µM	33.5 µM	19.7 µM	46.9 µM	17 µM	71.3 µM	2.17 µM	4.03 µM	2.42 µM	10.8 µM			10.6 µM	35.4 µM
NCCCn1c2c(c3ccccc3c1=O)C(=O)c1cc3c(cc1-2)OCO3	0.247 µM	3.57 µM	0.2 µM	4.23 µM	0.117 µM		0.242 µM	1.31 µM	1.54 µM	4.08 µM	1.23 µM	4.79 µM	< 0.01 µM	1.11 µM	0.311 µM	2.82 µM	0.149 µM	1.52 µM	0.137 µM	0.638 µM
COC(=O)/C=C1\SC(=Nc2ccc(C(F)(F)F)cc2)N(CCc2c[nH]c3ccccc23)C1=O	1.49 µM	2.81 µM	1.66 µM	6.42 µM	1.23 µM	3.98 µM	1.62 µM	3.02 µM	1.79 µM	3.38 µM	1.86 µM	3.81 µM	1.86 µM	3.43 µM	1.74 µM	3.62 µM	1.63 µM	2.99 µM	1.87 µM	4.21 µM
O=C(Nc1ncc([N+](=O)[O-])s1)c1cccc([N+](=O)[O-])c1	3.66 µM	> 100 µM	2.49 µM	> 40 µM	2.35 µM	8.27 µM	3.23 µM	37.1 µM	12.4 µM	> 100 µM	2.8 µM	> 100 µM	3.2 µM	> 100 µM	4.61 µM	65.6 µM	3.54 µM	> 100 µM	9.89 µM	> 100 µM
COc1cc(/C=C2\CC(C)CC3C2=NN(c2ccccc2)C3c2cc(OC)c(OC)c(OC)c2)cc(OC)c1OC (stereo unspecified)	9.69 µM	27.8 µM	6.4 µM	> 100 µM	6.48 µM	90.6 µM	16.6 µM	36.2 µM	53.7 µM	> 100 µM	13.5 µM	> 100 µM	17.9 µM	37.5 µM	7.28 µM	40.8 µM	9.77 µM	39 µM	15.4 µM	45.7 µM
CC1/C=C/C=C/CC/C=C/C=C/C=C/C=C/C(OC2OC(C)C(O)C(N)C2O)CC2OC(CC(O)C(O)CCC(O)CC(O)CC(O)CC(=O)OC(C)C(C)C1O)CC(O)C2C(=O)O (stereo unspecified)	24.1 µg/mL	33.1 µM and 47.9 µg/mL	74.9 µg/mL	> 100 µM and 150 µg/mL		45.1 µM	28 µg/mL	32.3 µM and 64.1 µg/mL	49.5 µg/mL	35.8 µM and 135 µg/mL		30.9 µM	19.1 µg/mL	30.8 µM and 44.6 µg/mL	53 µg/mL	61.5 µM and 150 µg/mL	69.1 µg/mL	32.4 µM and 150 µg/mL	32.3 µg/mL	32.4 µM and 73.5 µg/mL
Clc1ccc(N2COOC3(OOC2)C2CC4CC(C2)CC3C4)cc1	0.15 µM	2.44 µM	0.543 µM	> 39.5 µM	1.55 µM	8.27 µM	4.74 µM	59.3 µM	8.34 µM	> 74.8 µM	4.17 µM	> 100 µM	> 24.4 µM	> 100 µM	2.02 µM	> 100 µM	11.9 µM	32.9 µM	8.83 µM	> 89 µM
O=C1NC(=O)[C@@H](c2cn3c4c(cccc24)CCC3)[C@@H]1c1c[nH]c2ccccc12	0.601 µM and 0.67 µM	> 10 µM and 14.8 µM	0.182 µM and 0.312 µM	> 10 µM and 18.6 µM	0.348 µM and 0.35 µM	> 4.06 µM and 6.88 µM	0.319 µM and 0.337 µM	2.39 µM and 5.25 µM	0.652 µM and 1.1 µM	> 10 µM and 22.2 µM	0.482 µM and 0.991 µM	> 10 µM and 29.3 µM	0.59 µM and 0.49 µM	> 10 µM and 5.82 µM	0.382 µM and 0.433 µM	> 10 µM and 6.15 µM	0.391 µM and 0.451 µM	> 10 µM and 12.9 µM	0.417 µM and 0.442 µM	> 10 µM and 6.81 µM
